# Key:
# [1] = target: T1, FMS kinase (Homo sapiens, UniProt P07333); test: Kinase HotSpot cell-free enzyme assay, FMS kinase; format: biochemical; details: for IC50: 10-dose duplicate assay, mean ± SEM, starting with 81 µM, threefold serial dilution, read-out: IC50 against FMS kinase
# T1 construct: purchased Reaction Biology Corp
# Procedure: Reaction Biology Corp. Kinase HotSpot^SM service [http://www.reactionbiology.com] was utilised for screening of the target compounds as per the protocol reported in the literature.
# Compounds 1a–r were tested in a 10-dose testing mode starting with 81 µM, threefold serial dilutions, against FMS kinase in a cell-free enzyme assay. […] This can be due to occupancy of a hydrophobic pocket with that additional benzoyl moiety and/or formation of additional hydrogen bond by the carbonyl oxygen.
# T1 sequence (P07333 20-972): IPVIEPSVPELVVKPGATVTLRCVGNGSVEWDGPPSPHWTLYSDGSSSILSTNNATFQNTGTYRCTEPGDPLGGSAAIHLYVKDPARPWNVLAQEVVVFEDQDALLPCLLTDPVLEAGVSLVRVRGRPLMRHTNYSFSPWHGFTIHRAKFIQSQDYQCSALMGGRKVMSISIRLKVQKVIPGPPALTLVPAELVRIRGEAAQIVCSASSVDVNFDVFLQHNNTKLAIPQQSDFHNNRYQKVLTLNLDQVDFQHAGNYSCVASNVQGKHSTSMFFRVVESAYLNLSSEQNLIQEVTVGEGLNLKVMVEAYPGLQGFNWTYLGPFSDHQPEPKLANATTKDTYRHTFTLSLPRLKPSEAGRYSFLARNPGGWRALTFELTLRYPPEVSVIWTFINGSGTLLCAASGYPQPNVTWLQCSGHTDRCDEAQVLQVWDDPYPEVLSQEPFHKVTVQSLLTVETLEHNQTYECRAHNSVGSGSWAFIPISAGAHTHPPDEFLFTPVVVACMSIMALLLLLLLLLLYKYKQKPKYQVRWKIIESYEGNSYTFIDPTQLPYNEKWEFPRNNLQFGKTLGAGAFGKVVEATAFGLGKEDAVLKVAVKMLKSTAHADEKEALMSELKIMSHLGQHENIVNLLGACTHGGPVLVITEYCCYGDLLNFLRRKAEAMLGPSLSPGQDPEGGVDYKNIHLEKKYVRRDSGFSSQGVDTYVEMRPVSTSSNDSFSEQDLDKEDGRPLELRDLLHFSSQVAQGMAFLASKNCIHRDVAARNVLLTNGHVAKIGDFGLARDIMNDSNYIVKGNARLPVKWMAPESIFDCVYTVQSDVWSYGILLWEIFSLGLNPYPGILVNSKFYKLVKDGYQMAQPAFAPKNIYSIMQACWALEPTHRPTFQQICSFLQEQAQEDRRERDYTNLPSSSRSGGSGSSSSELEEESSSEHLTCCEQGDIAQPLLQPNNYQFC
SMILES,IC50 [1],melting point,"Potency against FMS kinase relative to KIST101029 ([1]; ratio of IC50 values, more potent than lead compound KIST101029)"
O=C(Nc1ccc(-n2ccc3c(NC(=O)c4ccccc4)nccc32)cc1)Nc1ccc(Cl)c(C(F)(F)F)c1 [Compound 1c],0.39 ± 0.02 µM,,
O=C(Nc1ccc(-n2ccc3c(NC(=O)c4ccccc4)nccc32)cc1)Nc1cc(C(F)(F)F)cc(C(F)(F)F)c1 [Compound 1e],0.06 ± 0.01 µM,> 280 °C,1.6 times
O=C(Nc1ccc(-n2ccc3c(NC(=O)c4ccccc4)nccc32)cc1)c1ccc(Cl)c(Cl)c1 [Compound 1f],> 81 µM,,
Nc1nccc2c1ccn2-c1cccc(NC(=O)c2ccc(Cl)c(Cl)c2)c1 [Compound 1o],40.7 ± 2.4 µM,> 280 °C,
Nc1nccc2c1ccn2-c1ccc(NC(=O)c2ccc(N3CCOCC3)c(C(F)(F)F)c2)cc1 [Compound 1p],0.1 ± 0.03 µM,253 to 256 °C (dec.),
Nc1nccc2c1ccn2-c1ccc(NC(=O)c2ccc(Cl)c(Cl)c2)cc1 [Compound 1n],> 81 µM,,
O=C(Nc1cccc(-n2ccc3c(NC(=O)c4ccccc4)nccc32)c1)Nc1ccc(Cl)c(C(F)(F)F)c1 [Compound 1d],2.47 ± 0.03 µM,143 to 145 °C,
O=C(Nc1ccc(-n2ccc3c(NC(=O)c4ccccc4)nccc32)cc1)c1ccc(N2CCOCC2)c(C(F)(F)F)c1 [Compound 1j],33.1 ± 0.45 µM,,
O=C(Nc1cccc(-n2ccc3c(NC(=O)c4ccccc4)nccc32)c1)c1ccc(Cl)c(Cl)c1 [Compound 1g],1.27 ± 0.07 µM,,
O=C(Nc1cccc(-n2ccc3c(NC(=O)c4ccccc4)nccc32)c1)c1cccc(C(F)(F)F)c1 [Compound 1i],> 81 µM,142 to 144 °C,
O=C(Nc1ccc(-n2ccc3c(NC(=O)c4ccccc4)nccc32)cc1)c1cccc(C(F)(F)F)c1 [Compound 1h],10.8 ± 0.6 µM,,
Nc1nccc2c1ccn2-c1ccc(NC(=O)Nc2ccc(Cl)c(C(F)(F)F)c2)cc1 [Compound 1l],3.2 ± 0.07 µM,> 280 °C,
Nc1nccc2c1ccn2-c1ccc(NC(=O)Nc2cc(C(F)(F)F)cc(C(F)(F)F)c2)cc1 [Compound 1m],1.45 ± 0.03 µM,,
